Experimental data as given in ChEMBL document CHEMBL1649226, “Species identification and antifungal susceptibility patterns of species belonging to Aspergillus section Nigri” (2009).
In brackets after ≈: the same amount, converted by molar mass.

How the values were obtained:
Format in all cases: functional
[1] = system: Aspergillus niger; test: Antifungal activity against Aspergillus niger isolate CM-3236 obtained from respiratory tract infection of patient after 48 hrs by EUCAST broth dilution method; settings: isolate CM-3236, 48 h
[2] = system: Aspergillus niger; test: Antifungal activity against Aspergillus niger isolate CM-3641 obtained from respiratory tract infection of patient after 48 hrs by EUCAST broth dilution method; settings: isolate CM-3641, 48 h
[3] = system: Aspergillus tubingensis; test: Antifungal activity against Aspergillus tubingensis isolate CM-4899 obtained from respiratory tract infection of patient after 48 hrs by EUCAST broth dilution method; settings: isolate CM-4899, 48 h
[4] = system: Aspergillus tubingensis; test: Antifungal activity against Aspergillus tubingensis isolate CM-5094 obtained from respiratory tract infection of patient after 48 hrs by EUCAST broth dilution method; settings: isolate CM-5094, 48 h
[5] = system: Aspergillus niger; test: Antifungal activity against Aspergillus niger isolate CM-4004 obtained from after 48 hrs by EUCAST broth dilution method; settings: isolate CM-4004, 48 h
[6] = system: Aspergillus tubingensis; test: Antifungal activity against Aspergillus tubingensis isolate CM-3123 obtained from respiratory tract infection of patient after 48 hrs by EUCAST broth dilution method; settings: isolate CM-3123, 48 h
[7] = system: Aspergillus foetidus; test: Antifungal activity against Aspergillus foetidus isolate CM-5264 obtained from respiratory tract infection of patient after 48 hrs by EUCAST broth dilution method; settings: isolate CM-5264, 48 h
[8] = system: Aspergillus tubingensis; test: Antifungal activity against Aspergillus tubingensis isolate CM-3507 obtained from respiratory tract infection of patient after 48 hrs by EUCAST broth dilution method; settings: isolate CM-3507, 48 h
[9] = system: Aspergillus tubingensis; test: Antifungal activity against Aspergillus tubingensis isolate CM-3654 obtained from blood culture after 48 hrs by EUCAST broth dilution method; settings: isolate CM-3654, 48 h
[10] = system: Aspergillus niger; test: Antifungal activity against Aspergillus niger isolate CM-4213 obtained from respiratory tract infection of patient after 48 hrs by EUCAST broth dilution method; settings: isolate CM-4213, 48 h
[11] = system: Aspergillus tubingensis; test: Antifungal activity against Aspergillus tubingensis isolate CM-3585 after 48 hrs by EUCAST broth dilution method; settings: isolate CM-3585, 48 h
[12] = system: Aspergillus tubingensis; test: Antifungal activity against Aspergillus tubingensis isolate CM-4897 obtained from blood culture after 48 hrs by EUCAST broth dilution method; settings: isolate CM-4897, 48 h
[13] = system: Aspergillus niger; test: Antifungal activity against Aspergillus niger isolate CM-3506 obtained from respiratory tract infection of patient after 48 hrs by EUCAST broth dilution method; settings: isolate CM-3506, 48 h
[14] = system: Aspergillus niger; test: Antifungal activity against Aspergillus niger isolate CM-5095 obtained from respiratory tract infection of patient after 48 hrs by EUCAST broth dilution method; settings: isolate CM-5095, 48 h
[15] = system: Aspergillus niger; test: Antifungal activity against Aspergillus niger isolate CM-3672 obtained from cutaneous layer of patient after 48 hrs by EUCAST broth dilution method; settings: isolate CM-3672, 48 h
[16] = system: Aspergillus tubingensis; test: Antifungal activity against Aspergillus tubingensis isolate CM-4001 after 48 hrs by EUCAST broth dilution method; settings: isolate CM-4001, 48 h
[17] = system: Aspergillus tubingensis; test: Antifungal activity against Aspergillus tubingensis isolate CM-3810 obtained from respiratory tract infection of patient after 48 hrs by EUCAST broth dilution method; settings: isolate CM-3810, 48 h
[18] = system: Aspergillus niger; test: Antifungal activity against Aspergillus niger isolate CM-3551 obtained from respiratory tract infection of patient after 48 hrs by EUCAST broth dilution method; settings: isolate CM-3551, 48 h
[19] = system: Aspergillus tubingensis; test: Antifungal activity against Aspergillus tubingensis isolate CM-3125 obtained from respiratory tract infection of patient after 48 hrs by EUCAST broth dilution method; settings: isolate CM-3125, 48 h
[20] = system: Aspergillus niger; test: Antifungal activity against Aspergillus niger isolate CM-3586 obtained from catheter of patient after 48 hrs by EUCAST broth dilution method; settings: isolate CM-3586, 48 h
[21] = system: Aspergillus tubingensis; test: Antifungal activity against Aspergillus tubingensis isolate CM-4296 obtained from respiratory tract infection of patient after 48 hrs by EUCAST broth dilution method; settings: isolate CM-4296, 48 h
[22] = system: Aspergillus foetidus; test: Antifungal activity against Aspergillus foetidus isolate CM-4995 obtained from prosthesis after 48 hrs by EUCAST broth dilution method; settings: isolate CM-4995, 48 h
[23] = system: Aspergillus niger; test: Antifungal activity against Aspergillus niger isolate CM-4262 after 48 hrs by EUCAST broth dilution method Ophthalmic; settings: isolate CM-4262, 48 h
[24] = system: Aspergillus foetidus; test: Antifungal activity against Aspergillus foetidus isolate CM-4002 after 48 hrs by EUCAST broth dilution method; settings: isolate CM-4002, 48 h
[25] = system: Aspergillus tubingensis; test: Antifungal activity against Aspergillus tubingensis isolate CM-4000 after 48 hrs by EUCAST broth dilution method; settings: isolate CM-4000, 48 h
[26] = system: Aspergillus tubingensis; test: Antifungal activity against Aspergillus tubingensis isolate CM-4352 obtained from respiratory tract infection of patient after 48 hrs by EUCAST broth dilution method; settings: isolate CM-4352, 48 h
[27] = system: Aspergillus niger; test: Antifungal activity against Aspergillus niger isolate CM-3257 obtained from respiratory tract infection of patient after 48 hrs by EUCAST broth dilution method; settings: isolate CM-3257, 48 h
[28] = system: Aspergillus tubingensis; test: Antifungal activity against Aspergillus tubingensis isolate CM-3177 obtained from respiratory tract infection of patient after 48 hrs by EUCAST broth dilution method; settings: isolate CM-3177, 48 h
[29] = system: Aspergillus tubingensis; test: Antifungal activity against Aspergillus tubingensis isolate CM-4003 after 48 hrs by EUCAST broth dilution method; settings: isolate CM-4003, 48 h
[30] = system: Aspergillus niger; test: Antifungal activity against Aspergillus niger isolate CM-3636 obtained from respiratory tract infection of patient after 48 hrs by EUCAST broth dilution method; settings: isolate CM-3636, 48 h
[31] = system: Aspergillus tubingensis; test: Antifungal activity against Aspergillus tubingensis isolate CM-4688 obtained from respiratory tract infection of patient after 48 hrs by EUCAST broth dilution method; settings: isolate CM-4688, 48 h
[32] = system: Aspergillus niger; test: Antifungal activity against Aspergillus niger isolate CM-4316 obtained from respiratory tract infection of patient after 48 hrs by EUCAST broth dilution method; settings: isolate CM-4316, 48 h
[33] = system: Aspergillus tubingensis; test: Antifungal activity against Aspergillus tubingensis isolate CM-4005 after 48 hrs by EUCAST broth dilution method; settings: isolate CM-4005, 48 h
[34] = system: Aspergillus tubingensis; test: Antifungal activity against Aspergillus tubingensis isolate CM-4264 obtained from blood culture after 48 hrs by EUCAST broth dilution method; settings: isolate CM-4264, 48 h

Compound | MIC [1] | MIC [2] | MIC [3] | MIC [4] | MIC [5] | MIC [6] | MIC [7] | MIC [8] | MIC [9] | MIC [10] | MIC [11] | MIC [12] | MIC [13] | MIC [14] | MIC [15] | MIC [16] | MIC [17] | MIC [18] | MIC [19] | MIC [20] | further results
C[C@@H]1[C@H](O)[C@@H](C)/C=C/C=C/C=C/C=C/C=C/C=C/C=C/[C@H](O[C@@H]2O[C@H](C)[C@@H](O)[C@H](N)[C@@H]2O)C[C@@H]2O[C@](O)(C[C@@H](O)C[C@@H](O)[C@H](O)CC[C@@H](O)C[C@@H](O)CC(=O)O[C@H]1C)C[C@H](O)[C@H]2C(=O)O [AMPHOTERICIN B] | 0.19 µg/mL (≈ 0.206 µM) | 0.25 µg/mL (≈ 0.271 µM) | 0.16 µg/mL (≈ 0.173 µM) | 0.12 µg/mL (≈ 0.13 µM) | 0.25 µg/mL (≈ 0.271 µM) | 0.25 µg/mL (≈ 0.271 µM) | 0.12 µg/mL (≈ 0.13 µM) | 0.19 µg/mL (≈ 0.206 µM) | 0.19 µg/mL (≈ 0.206 µM) | 0.33 µg/mL (≈ 0.357 µM) | 0.19 µg/mL (≈ 0.206 µM) | 0.16 µg/mL (≈ 0.173 µM) | 0.19 µg/mL (≈ 0.206 µM) | 0.19 µg/mL (≈ 0.206 µM) | 0.12 µg/mL (≈ 0.13 µM) | 0.19 µg/mL (≈ 0.206 µM) | 0.25 µg/mL (≈ 0.271 µM) | 0.5 µg/mL (≈ 0.541 µM) | 0.12 µg/mL (≈ 0.13 µM) | 0.25 µg/mL (≈ 0.271 µM) | MIC [21]: 0.12 µg/mL (≈ 0.13 µM); MIC [22]: 0.21 µg/mL (≈ 0.227 µM); MIC [23]: 0.25 µg/mL (≈ 0.271 µM); MIC [24]: 0.25 µg/mL (≈ 0.271 µM); MIC [25]: 0.16 µg/mL (≈ 0.173 µM); MIC [26]: 0.28 µg/mL (≈ 0.303 µM); MIC [27]: 0.25 µg/mL (≈ 0.271 µM); MIC [28]: 0.16 µg/mL (≈ 0.173 µM); MIC [29]: 0.12 µg/mL (≈ 0.13 µM); MIC [30]: 0.25 µg/mL (≈ 0.271 µM); MIC [31]: 0.21 µg/mL (≈ 0.227 µM); MIC [32]: 0.19 µg/mL (≈ 0.206 µM); MIC [33]: 0.12 µg/mL (≈ 0.13 µM); MIC [34]: 0.12 µg/mL (≈ 0.13 µM)
CCC(C)n1ncn(-c2ccc(N3CCN(c4ccc(OCC5COC(Cn6cncn6)(c6ccc(Cl)cc6Cl)O5)cc4)CC3)cc2)c1=O (configuration not stated) [ITRACONAZOLE] | 0.5 µg/mL (≈ 0.709 µM) | 0.5 µg/mL (≈ 0.709 µM) | 1 µg/mL (≈ 1.42 µM) | 0.5 µg/mL (≈ 0.709 µM) | 1 µg/mL (≈ 1.42 µM) | 11 µg/mL (≈ 15.6 µM) | 16 µg/mL (≈ 22.7 µM) | 0.5 µg/mL (≈ 0.709 µM) | 1 µg/mL (≈ 1.42 µM) | 0.14 µg/mL (≈ 0.198 µM) | 0.5 µg/mL (≈ 0.709 µM) | 1 µg/mL (≈ 1.42 µM) | 0.5 µg/mL (≈ 0.709 µM) | 0.5 µg/mL (≈ 0.709 µM) | 0.5 µg/mL (≈ 0.709 µM) | 1 µg/mL (≈ 1.42 µM) | 4 µg/mL (≈ 5.67 µM) | 4.75 µg/mL (≈ 6.73 µM) | 0.5 µg/mL (≈ 0.709 µM) | 0.5 µg/mL (≈ 0.709 µM) | MIC [21]: 0.75 µg/mL (≈ 1.06 µM); MIC [22]: 1 µg/mL (≈ 1.42 µM); MIC [23]: 1 µg/mL (≈ 1.42 µM); MIC [24]: 1 µg/mL (≈ 1.42 µM); MIC [25]: 1 µg/mL (≈ 1.42 µM); MIC [26]: 1 µg/mL (≈ 1.42 µM); MIC [27]: 1 µg/mL (≈ 1.42 µM); MIC [28]: 1 µg/mL (≈ 1.42 µM); MIC [29]: 16 µg/mL (≈ 22.7 µM); MIC [30]: 0.5 µg/mL (≈ 0.709 µM); MIC [31]: 3.67 µg/mL (≈ 5.2 µM); MIC [32]: 0.5 µg/mL (≈ 0.709 µM); MIC [33]: 16 µg/mL (≈ 22.7 µM); MIC [34]: 0.5 µg/mL (≈ 0.709 µM)
CC[C@@H]([C@H](C)O)n1ncn(-c2ccc(N3CCN(c4ccc(OC[C@@H]5CO[C@@](Cn6cncn6)(c6ccc(F)cc6F)C5)cc4)CC3)cc2)c1=O [POSACONAZOLE] | 0.12 µg/mL (≈ 0.171 µM) | 0.125 µg/mL (≈ 0.178 µM) | 0.25 µg/mL (≈ 0.357 µM) | 0.06 µg/mL (≈ 0.0856 µM) | 0.25 µg/mL (≈ 0.357 µM) | 0.25 µg/mL (≈ 0.357 µM) | 0.5 µg/mL (≈ 0.713 µM) | 0.15 µg/mL (≈ 0.214 µM) | 0.25 µg/mL (≈ 0.357 µM) | 0.03 µg/mL (≈ 0.0428 µM) | 0.12 µg/mL (≈ 0.171 µM) | 0.25 µg/mL (≈ 0.357 µM) | 0.12 µg/mL (≈ 0.171 µM) | 0.12 µg/mL (≈ 0.171 µM) | 0.19 µg/mL (≈ 0.271 µM) | 0.25 µg/mL (≈ 0.357 µM) | 0.12 µg/mL (≈ 0.171 µM) | 0.12 µg/mL (≈ 0.171 µM) | 0.12 µg/mL (≈ 0.171 µM) | 0.12 µg/mL (≈ 0.171 µM) | MIC [21]: 0.19 µg/mL (≈ 0.271 µM); MIC [22]: 0.16 µg/mL (≈ 0.228 µM); MIC [23]: 0.25 µg/mL (≈ 0.357 µM); MIC [24]: 0.12 µg/mL (≈ 0.171 µM); MIC [25]: 0.25 µg/mL (≈ 0.357 µM); MIC [26]: 0.25 µg/mL (≈ 0.357 µM); MIC [27]: 0.25 µg/mL (≈ 0.357 µM); MIC [28]: 0.25 µg/mL (≈ 0.357 µM); MIC [29]: 0.25 µg/mL (≈ 0.357 µM); MIC [30]: 0.19 µg/mL (≈ 0.271 µM); MIC [31]: 0.25 µg/mL (≈ 0.357 µM); MIC [32]: 0.125 µg/mL (≈ 0.178 µM); MIC [33]: 0.5 µg/mL (≈ 0.713 µM); MIC [34]: 0.12 µg/mL (≈ 0.171 µM)
